From patent US9445597B2, “Pesticidal compositions and related methods” (DOW AGROSCIENCES LLC, priority 2013, dated 2016)
Read-outs that look alike come from different tables or passages of the source.

Experiments:
[1] = tested on: Green Peach Aphid (Myzus persicae) (GPA) (MYZUPE); test: Bioassay for Green Peach Aphid (GPA), foliar spray on cabbage seedlings; format: in vivo; conditions: 72 h, read-out: % Control (or Mortality) rating, GPA
Protocol: Example A: Bioassay for Green Peach Aphid (Myzus persicae) (GPA) (MYZUPE).
Cabbage seedlings grown in 3-inch pots, with 2-3 small (3-5 cm) true leaves, were used as test substrate. The seedlings were infested with 20-50 GPA (wingless adult and nymph stages) one day prior to chemical application. Four pots with individual seedlings were used for each treatment. Test compounds (2 mg) were dissolved in 2 mL of acetone/methanol (1:1) solvent, forming stock solutions of 1000 ppm test compound. The stock solutions were diluted 5× with 0.025% Tween 20 in H2O to obtain the solution at 200 ppm test compound. A hand-held aspirator-type sprayer was used for spraying a solution to both sides of […] leaves until runoff. Reference plants (solvent check) were sprayed with the diluent only containing 20% by volume of acetone/methanol (1:1) solvent. Treated plants were held in a holding room for three days at approximately 25° C. and ambient relative humidity (RH) prior to grading. Evaluation was conducted by counting the number of live aphids per plant under a microscope. Percent control was measured by using Abbott's correction formula (W. S. Abbott, “A Method of Computing the Effectiveness of an Insecticide” J. Econ. Entomol. 18 (1925), pp. 265-267) as follows. Corrected % Control=100*(X−Y)/X • where • X=No. of live aphids on solvent check plants and • Y=No. of live aphids on treated plants
(§1) Biological Data for Green Peach Aphid (GPA) (MYZUPE) and Sweetpotato Whitefly-crawler (WF) (BEMITA)” (see table section).

[2] = tested on: Sweetpotato Whitefly-crawler (WF) (Bemisia tabaci) (BEMITA); test: Insecticidal test for Sweetpotato Whitefly-crawler (WF) in foliar spray assay on cotton plants; format: in vivo; conditions: 216 h, read-out: % Control (or Mortality) rating, WF
Protocol: Example B: Insecticidal test for Sweetpotato Whitefly-crawler (WF) (Bemisia tabaci) (BEMITA) in foliar spray assay.
Cotton plants (Gossypium hirsutum) grown in 3-inch pots, with 1 small (4-5 cm) true leaves, were used as test substrate. The plants were infested with 200-400 whitefly eggs 4-5 days prior to chemical application. Four pots with individual plants were used for each treatment. Test compounds (2 mg) were dissolved in 1 mL of acetone solvent, forming stock solutions of 2000 ppm test compound. The stock solutions were diluted 10× with 0.025% Tween 20 in H2O (diluents) to obtain the solution at 200 ppm test compound. A hand-held aspirator-type sprayer was used for spraying a solution to both sides of cotton leaves until runoff. Reference plants (solvent check) were sprayed with the diluent only containing 10% by volume of acetone solvent. Treated plants were held in a holding room for 9 days at approximately 25° C. and ambient relative humidity (RH) prior to grading. Evaluation was conducted by counting the number of live 3-4 nymph stage per plant under a microscope. Percent control was measured by using Abbott's correction formula (W. S. Abbott, “A Method of Computing the Effectiveness of an Insecticide” J. Econ. Entomol. 18 (1925), pp. 265-267) as follows. Corrected % Control=100*(X−Y)/X • where • X=No. of live nymphs on solvent check plants and • Y=No. of live nymphs on treated plants.
as §1

[3] = 200 ppm foliar spray, cabbage seedlings, graded after three days, Abbott corrected % control
[4] = 200 ppm foliar spray, cotton plants, graded after 9 days, Abbott corrected % control

| SMILES | mortality at 200 ppm ([1]; foliar) | mortality at 200 ppm ([2]; foliar) | mortality at 200 ppm [1, 3] | mortality at 200 ppm [2, 4] |
| --- | --- | --- | --- | --- |
| Cc1nc(-c2cc(F)c[n+]([O-])c2)sc1N(C)C(=O)OC(C)(C)C [CA1, 3-(5-((tert-Butoxycarbonyl)(methyl)amino)-4-methylthiazol-2-yl)-5-fluoropyridine 1-oxide] | 80 to 100% | 0 to 80% | – | – |
| CSCCC(=O)Nc1sc(-c2cccnc2)nc1Cl [Compound C3, N-(4-chloro-2-(pyridin-3-yl)thiazol-5-yl)-3-(methylthio)propanamide] | – | – | 80 to 100% | 0 to 80% |
| CC(CS(C)(=O)=O)C(=O)N(C)c1sc(-c2ccc[n+]([O-])c2)nc1Cl (centres unmarked) [Compound F1, 3-(4-Chloro-5-(N,2-dimethyl-3-(methylsulfonyl)propanamido)thiazol-2yl) pyridine 1-oxide] | – | – | 80 to 100% | 0 to 80% |
| CS(=O)(=O)CCC(=O)Nc1sc(-c2ccc[n+]([O-])c2)nc1Cl [Compound F2] | – | – | 80 to 100% | 0 to 80% |
| CCN(C(=O)CCS(C)(=O)=O)c1sc(-c2ccc[n+]([O-])c2)nc1Cl [Compound F3, 3-(4-chloro-5-(N-ethyl-3-(methylsulfonyl)propanamido)thiazol-2-yl)pyridine 1-oxide] | – | – | 80 to 100% | 80 to 100% |
| CCN(C(=O)CCSCCC(F)(F)F)c1sc(-c2ccc[n+]([O-])c2)nc1Cl [Compound P1, 3-(4-chloro-5-(N-ethyl-3-((3,3,3-trifluoropropyl)thio)propanamido)thiazol-2-yl)pyridine 1-oxide] | – | – | 80 to 100% | 80 to 100% |
| CCN(C(=O)CC[S+]([O-])CCC(F)(F)F)c1sc(-c2ccc[n+]([O-])c2)nc1Cl (centres unmarked) [Compound P2, 3-(4-Chloro-5-(N-ethyl-3-((3,3,3-trifluoropropyl)sulfinyl)propanamido)thiazol-2-yl)pyridine 1-oxide] | – | – | 80 to 100% | 80 to 100% |
| CCN(C(=O)CCS(=O)(=O)CCC(F)(F)F)c1sc(-c2ccc[n+]([O-])c2)nc1Cl [Compound P3, 3-(4-Chloro-5-(N-ethyl-3-((3,3,3-trifluoropropyl)sulfonyl)propanamido)thiazol-2-yl)pyridine 1-oxide] | – | – | 80 to 100% | 80 to 100% |
| CCN(C(=O)CCSC)c1sc(-c2ccc[n+]([O-])c2)nc1Cl [Compound P4, 3-(4-Chloro-5-(N-ethyl-3-(methylthio)propanamido)thiazol-2-yl) pyridine 1-oxide] | – | – | 80 to 100% | 80 to 100% |
| CCN(C(=O)CC[S+](C)[O-])c1sc(-c2ccc[n+]([O-])c2)nc1Cl (centres unmarked) [Compound P5, 3-(4-Chloro-5-(N-ethyl-3-(methylsulfinyl)propanamido)thiazol-2-yl)pyridine 1-oxide] | – | – | 80 to 100% | 80 to 100% |
| CCN(C(=O)C(C)CSC)c1sc(-c2ccc[n+]([O-])c2)nc1Cl (centres unmarked) [Compound P6, 3-(4-Chloro-5-(N-ethyl-2-methyl-3-(methylthio)propanamido)thiazol-2-yl)pyridine 1-oxide] | – | – | 80 to 100% | 80 to 100% |
| CCN(C(=O)C(C)C[S+](C)[O-])c1sc(-c2ccc[n+]([O-])c2)nc1Cl (centres unmarked) [Compound P7, 3-(4-Chloro-5-(N-ethyl-2-methyl-3-(methylsulfinyl)propanamido)thiazol-2-yl)pyridine 1-oxide] | – | – | 80 to 100% | 80 to 100% |
| CCN(C(=O)C(C)CS(C)(=O)=O)c1sc(-c2ccc[n+]([O-])c2)nc1Cl (centres unmarked) [Compound P8, 3-(4-Chloro-5-(N-ethyl-2-methyl-3-(methylsulfonyl)propanamido)thiazol-2-yl)pyridine 1-oxide] | – | – | 80 to 100% | 80 to 100% |
| CSCCC(=O)N(C)c1sc(-c2cc(F)c[n+]([O-])c2)nc1C [FA1, 3-Fluoro-5-(4-methyl-5-(N-methyl-3-(methylthio)propanamido)thiazol-2-yl)pyridine 1-oxide] | – | – | 80 to 100% | 80 to 100% |
| Cc1nc(-c2cc(F)c[n+]([O-])c2)sc1N(C)C(=O)CCS(C)(=O)=O [FA2, 3-Fluoro-5-(4-methyl-5-(N-methyl-3-(methylsulfonyl)propanamido)thiazol-2-yl)pyridine 1-oxide] | – | – | 80 to 100% | 80 to 100% |
| Cc1nc(-c2cc(F)c[n+]([O-])c2)sc1N(C)C(=O)CC[S+](C)[O-] (centres unmarked) [FA3, 3-Fluoro-5-(4-methyl-5-(N-methyl-3-(methylsulfinyl)propanamido)thiazol-2-yl)pyridine 1-oxide] | – | – | 80 to 100% | 80 to 100% |
